Experimental data taken from patent US20240228489A1, “POSITIVE ALLOSTERIC MODULATORS OF THE MUSCARINIC ACETYLCHOLINE RECEPTOR M1” (Vanderbilt University, priority 2021, published 2024).

Key:
human mAChR M1 [1] = molecular target: T1, human mAChR M1 (Homo sapiens, UniProt P11229); assay: mAChR M1 cell-based functional assay (calcium mobilization), PAM mode: increase in the EC20 acetylcholine response
T1 sequence (P11229 1-460): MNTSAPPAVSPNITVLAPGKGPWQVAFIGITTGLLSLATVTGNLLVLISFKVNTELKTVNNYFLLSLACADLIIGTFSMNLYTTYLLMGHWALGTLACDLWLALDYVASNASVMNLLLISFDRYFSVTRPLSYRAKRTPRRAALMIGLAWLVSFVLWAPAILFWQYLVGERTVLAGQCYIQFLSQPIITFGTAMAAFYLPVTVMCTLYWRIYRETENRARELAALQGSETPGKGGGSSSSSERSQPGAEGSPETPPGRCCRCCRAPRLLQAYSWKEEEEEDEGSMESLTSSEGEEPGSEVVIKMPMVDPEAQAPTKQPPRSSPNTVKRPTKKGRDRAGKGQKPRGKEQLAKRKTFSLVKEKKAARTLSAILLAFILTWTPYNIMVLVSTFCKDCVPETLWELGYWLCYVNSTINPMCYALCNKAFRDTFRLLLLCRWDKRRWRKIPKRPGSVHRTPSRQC
Outline: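 CHO-K1 cells stably expressing hM1, Fluo-4 loaded, read by FDSS calcium flux at 1 Hz. Compound (11-point 1:3 CRC) added at 4 s, EC20 acetylcholine at 144 s, EC80 at 230 s. PAM activity taken as concentration-dependent increase in EC20 ACh response, fitted by four-parameter logistic for EC50/Emax.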

human mAChR M1 [2] = molecular target: T1, human mAChR M1; assay: mAChR M1 cell-based functional assay (calcium mobilization), agonist mode: compound alone, Emax relative to acetylcholine maximum; conditions: for Agonist Activity Human M1 EC50 / EC50: human mAChR M1; for Emax: relative to the maximum for acetylcholine
Outline: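 CHO-K1 cells stably expressing hM1 were loaded with Fluo-4 AM, and calcium flux was read as fluorescence ratio. Compound was added alone from an 11-point 1:3 curve, and the agonist response was fitted with a four-parameter logistic. Emax is expressed relative to the acetylcholine maximum.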

EC50 (human mAChR M1 [1]) | Emax (human mAChR M1 [1]) | Agonist Activity Human M1 EC50 (human mAChR M1 [2]) | Emax (human mAChR M1 [2]) | EC50 (human mAChR M1 [2]) | Compound
> 10000 nM | 12% | Inactive | 2% |  | [2H]C1([2H])c2ncccc2C(=O)N1Cc1c(F)cc(-c2ccc(OC(F)(F)F)c3c2cnn3C([2H])([2H])[2H])cc1F [Compound 251, 6-(2,6-difluoro-4-(1-(methyl-d3)-7-(trifluoromethoxy)-1H-indazol-4-yl)benzyl)-6,7-dihydro-5H-pyrrolo[3,4-b]pyridin-5-one-7,7-d2]
411 nM | 73% | Inactive | 2% |  | [2H]C1([2H])c2ncccc2C(=O)N1Cc1c(F)cc(-c2ccc(F)c3nn(C([2H])([2H])[2H])cc23)cc1F [Compound 45, 6-(2,6-difluoro-4-(7-fluoro-2-(methyl-d^3)-2H-indazol-4-yl)benzyl)-6,7-dihydro-5H-pyrrolo[3,4-b]pyridin-5-one-7,7-d2]
211 nM | 80% |  | 26% | 7520 nM | [2H]C1([2H])c2ncccc2C(=O)N1Cc1c(F)cc(-c2ccc(OCC)c3nn(C)cc23)cc1F [Compound 96, 6-(4-(7-ethoxy-2-methyl-2H-indazol-4-yl)-2,6-difluorobenzyl)-6,7-dihydro-5H-pyrrolo[3,4-b]pyridin-5-one-7,7-d2]
275 nM | 88% | Inactive | 7% |  | [2H]C1([2H])c2ncccc2C(=O)N1Cc1ccc(-c2ccc(OC)c3nn(C([2H])([2H])[2H])cc23)cc1F [Compound 55, 6-(2-fluoro-4-(7-methoxy-2-(methyl-d3)-2H-indazol-4-yl)benzyl)-6,7-dihydro-5H-pyrrolo[3,4-b]pyridin-5-one-7,7-d2]
391 nM | 72% |  | 15% | 7230 nM | [2H]C1([2H])c2ncccc2C(=O)N1Cc1c(F)cc(-c2ccc(OCS(C)(=O)=O)c3nn(C)cc23)cc1F [Compound 186, 6-(2,6-difluoro-4-(2-methyl-7-((methylsulfonyl)methoxy)-2H-indazol-4-yl)benzyl)-6,7-dihydro-5H-pyrrolo[3,4-b]pyridin-5-one-7,7-d2]
1940 nM | 74% | Inactive | 6% |  | [2H]C1([2H])c2ncccc2C(=O)N1Cc1ccc(-c2ccnc3nn(C)cc23)cc1F [Compound 22, 6-(2-fluoro-4-(2-methyl-2H-pyrazolo[3,4-b]pyridin-4-yl)benzyl)-6,7-dihydro-5H-pyrrolo[3,4-b]pyridin-5-one-7,7-d2]
900 nM | 76% | Inactive | 5% |  | [2H]C1([2H])c2ncccc2C(=O)N1Cc1ccc(-c2ccc(F)c3nn(C([2H])([2H])[2H])cc23)cc1C [Compound 47, 6-(4-(7-fluoro-2-(methyl-d3)-2H-indazol-4-yl)-2-methylbenzyl)-6,7-dihydro-5H-pyrrolo[3,4-b]pyridin-5-one-7,7-d2]
1440 nM | 71% | Inactive | 4% |  | [2H]C1([2H])c2ncccc2C(=O)N1Cc1ccc(-c2ccc(OC(F)(F)F)c3nn(C)cc23)cc1F [Compound 110, 6-(2-fluoro-4-(2-methyl-7-(trifluoromethoxy)-2H-indazol-4-yl)benzyl)-6,7-dihydro-5H-pyrrolo[3,4-b]pyridin-5-one-7,7-d2]
120 nM | 79% |  | 25% | 4930 nM | [2H]C([2H])([2H])Oc1cnc2c(c1)C(=O)N(Cc1ccc(-c3cccc4nn(C)cc34)cc1F)C2([2H])[2H] [Compound 82, 6-(2-fluoro-4-(2-methyl-2H-indazol-4-yl)benzyl)-3-(methoxy-d3)-6,7-dihydro-5H-pyrrolo[3,4-b]pyridin-5-one-7,7-d2]
1130 nM | 76% | Inactive | 7% |  | [2H]C1([2H])c2ncccc2C(=O)N1Cc1ccc(-c2cccc3nn(C)cc23)cc1F [Compound 23, 6-(2-fluoro-4-(2-methyl-2H-indazol-4-yl)benzyl)-6,7-dihydro-5H-pyrrolo[3,4-b]pyridin-5-one-7,7-d2]
88 nM | 46% | Inactive | 1% |  | [2H]C1([2H])c2ncccc2C(=O)N1Cc1c(F)cc(-c2cc(Cl)c3nn(C)cc3c2)cc1F [Compound 89, 6-(4-(7-chloro-2-methyl-2H-indazol-5-yl)-2,6-difluorobenzyl)-6,7-dihydro-5H-pyrrolo[3,4-b]pyridin-5-one-7,7-d2]
195 nM | 77% |  | 47% | 7930 nM | [2H]C1([2H])c2ncccc2C(=O)N1Cc1c(F)cc(-c2ccc(O)c3nn(C([2H])([2H])[2H])cc23)cc1F [Compound 132, 6-(2,6-difluoro-4-(7-hydroxy-2-(methyl-d3)-2H-indazol-4-yl)benzyl)-6,7-dihydro-5H-pyrrolo[3,4-b]pyridin-5-one-7,7-d2]
381 nM | 74% | Inactive | 8% |  | [2H]C1([2H])c2ncccc2C(=O)N1Cc1ccc(-c2ccc(OCC)c3nn(C)cc23)cc1F [Compound 108, 6-(4-(7-ethoxy-2-methyl-2H-indazol-4-yl)-2-fluorobenzyl)-6,7-dihydro-5H-pyrrolo[3,4-b]pyridin-5-one-7,7-d2]
437 nM | 83% |  | 43% | 8680 nM | [2H]C1([2H])c2ncccc2C(=O)N1Cc1c(C)cc(-c2ccc(OC3CC3)c3nn(C)cc23)cc1F [Compound 196, 6-(4-(7-cyclopropoxy-2-methyl-2H-indazol-4-yl)-2-fluoro-6-methylbenzyl)-6,7-dihydro-5H-pyrrolo[3,4-b]pyridin-5-one-7,7-d2]
1340 nM | 82% | Inactive | 2% |  | [2H]C1([2H])c2ncccc2C(=O)N1Cc1c(F)cc(-c2ccc(OC3CN(C(=O)OC(C)(C)C)C3)c3nn(C)cc23)cc1F [Compound 173, tert-butyl 3-((4-(3,5-difluoro-4-((5-oxo-5,7-dihydro-6H-pyrrolo[3,4-b]pyridin-6-yl-7,7-d2)methyl)phenyl)-2-methyl-2H-indaazol-7-yl)oxy)azetidine-1-carboxylate]
629 nM | 72% | Inactive | 3% |  | [2H]C1([2H])c2ncccc2C(=O)N1Cc1c(F)cc(-c2ccc(OC3CN(C4CCCCC4)C3)c3nn(C)cc23)cc1F [Compound 189, 6-(4-(7-((1-cyclohexylazetidin-3-yl)oxy)-2-methyl-2H-indazol-4-yl)-2,6-difluorobenzyl)-6,7-dihydro-5H-pyrrolo[3,4-b]pyridin-5-one-7,7-d2]

Compound | EC50 (human mAChR M1 [1]) | Emax (human mAChR M1 [1]) | Agonist Activity Human M1 EC50 (human mAChR M1 [2]) | Emax (human mAChR M1 [2]) | EC50 (human mAChR M1 [2])
[2H]C1([2H])c2ncccc2C(=O)N1Cc1c(F)cc(-c2ccc(Cl)c3nn(C)cc23)cc1OCC(C)C [Compound 215, 6-(4-(7-chloro-2-methyl-2H-indazol-4-yl)-2-fluoro-6-isobutoxybenzyl)-6,7-dihydro-5H-pyrrolo[3,4-b]pyridin-5-one-7,7-d2] | 2380 nM | 83% | Inactive | 2% | 
